{"source": "patent US20250011876A1", "about": "“EXTRACELLULAR RNA SIGNATURES OF MUTANT KRAS(G12C) CANCERS” (The Regents of the University of California, priority 2021, published 2025)", "key": {"[1]": {"system": "EVs secreted by H358 cells", "assay": "Nanoparticle Tracking Analysis of EV size, ExoTIC isolation", "assay_type": "cell-based", "settings": "ExoTIC-isolated EVs, H358, AMG 510 treatment", "source_text": "To characterize exRNA profiles, EVs were isolated using two orthogonal approaches: affinity column extraction (ExoRNeasy) and size-based filtration (Exosome Total Isolation Chip: ExoTIC). Each EV isolation method captured distinct EV populations as determined by Nanoparticle Tracking Analysis (NTA) (FIGS. 5A and 5B) 18.19. The ExoTIC platform captured a low yield of EVs that fell within a size range matching that of exosomes (FIG. 5A).\nThe exRNA landscape varies based on EV subpopulations isolated by different approaches. We sought to investigate two orthogonal approaches to EV isolation, which yielded distinct EV populations with variable exRNA content. This highlights the importance of upstream EV isolation procedures before the exRNA sequencing pipeline. […] The significant shift in the maxima of the EV size distribution corresponding to AMG 510 treatment was accompanied by local maxima around particles of even smaller dimensions. Further EV size-fractionated exRNA sequencing will be necessary to determine the contribution of the different EV subpopulations to our exRNA data.\nRNA Isolation & Purification. Total bulk RNA was isolated from H358 cells using Quick-RNA Mini-Prep kit (Zymogen). All RNA was quantified via NanoDrop-8000 Spectrophotometer. […] Extracted exosomal RNA were quantified via Qubit RNA HS assay kit (Thermo). […]"}, "[2]": {"system": "H358 3D spheroids", "assay": "H358 spheroid size/area", "assay_type": "cell-based", "settings": "0.1 μM AMG 510"}, "[3]": {"system": "KRAS and phosphorylated ERK in NCI-H358 cells", "settings": "cited from earlier work"}}}
{"molecule": "C=CC(=O)N1CCN(c2nc(=O)n(-c3c(C)ccnc3C(C)C)c3nc(-c4c(O)cccc4F)c(F)cc23)[C@@H](C)C1", "note": "[AMG 510, Sotorasib]", "values": [{"measurement": "EV size profile after treatment", "setting": "[1]", "value": "around 150 nm"}, {"measurement": "decrease of 3D spheroid size with respect to control", "setting": "[2]", "value": 20, "unit": "%"}]}
{"molecule": "C=CC(=O)N1CCN(c2ncnc3c(F)c(-c4c(O)cccc4F)c(Cl)cc23)CC1", "note": "[ARS1620]", "values": [{"measurement": "time at which abundance of KRAS and pERK begin to recover", "setting": "[3]", "value": 24, "unit": "hours"}]}
